This note sets out measurements from patent US8198285B2, “Pyrazine derivatives” (Astrazeneca AB, priority 2010, dated 2012).

Where a name gives a salt, the structure may show the parent alone.

This assay deals with T1, human GSK3β enzyme (Homo sapiens, UniProt P49841).
T1 construct: His6 (N); purchased Millipore 14-306; host or cells: baculovirus / Sf21 insect cells
The assay is described as follows: In vitro GSK3β kinase assay (FRET, Z'-LYTE), Test (a). Type of assay: biochemical. The following applies: read-out: IC50 versus human GSK3β enzyme. From the text: This biochemical assay used a Fluorescence Resonance Energy Transfer (FRET)-based, coupled-enzyme format to determine the ability of test compounds to inhibit substrate phosphorylation by recombinant GSK3β serine/threonine kinase (Kleman-Leyer, K. et al. Drug Disc. Devel. 2003, 6:81-2). The substrate used in this assay was Z′-LYTE™ ser/Thr 9 peptide and the FRET assay kit was obtained from Invitrogen (Paisley, UK, catalogue number PV3324). N-terminal His6-tagged recombinant human GSK313, with an H350 L mutation, was expressed in baculovirus in Sf21 insect cells, purified and obtained from Millipore (Billerica, Mass., USA, catalogue number 14-306 Human).
Test compounds were prepared as 10 mM stock solutions in dimethylsulphoxide (DMSO) and diluted in DMSO as required. Aliquots (2.5 μl) of compound dilutions were added to the wells of an Optiplate-F PerkinElmer 384-well plate (Massachusetts, USA, catalogue number 6007270). Control wells that produced a maximum signal corresponding to maximum enzyme activity were created by using 100% phosphorylated peptide obtained from Invitrogen (Paisley, UK, catalogue number PV3326). A 5 μl aliquot of 100% phosphorylated peptide (100 μM in 1.33× kinase buffer) was added to all maximum control wells. 2.5 μl of 4% DMSO solution (v/v) in 1.33× kinase buffer was added to maximum control wells. Control wells that produced a minimum signal corresponding to 100% inhibited enzyme were created by adding 2.5 μl of 40 μM Staurosporine in 1.33× kinase buffer containing 4% DMSO (v/v). A 5 μl mixture of GSK3β (100 ng/μl) enzyme and non-phosphorylated substrate (Z-LYTE™ ser/Thr 9 peptide, 100 μM) in a 1.33× kinase buffer solution was added to each well except maximum control wells and the assay plate centrifuged at 270 g for 1 minute. The kinase buffer used 1.33× was obtained from Invitrogen (Paisley, UK, catalogue number PV3189) and contained 67 mM HEPES (pH 7.5), 13 mM MgCl2, 1.3 mM EGTA, 0.01% BRIJ-35. Then 2.5 μl adenosine triphosphate (28 μM) in kinase buffer was added per well, centrifuged at 270 g for 1 minute and then the assay plate was shaken for 1 hour at room temperature. A proprietary development solution was prepared by adding 58 μl of development reagent A (Invitrogen, Paisley, UK, catalogue number PV3297) to 2142 μl of development reagent B (Invitrogen, Paisley, UK, catalogue number P3127). […]
The resultant signals arising from laser light excitation at 400 nm were read using a Perkin Elmer Envision spectrophotometer (Perkin Elmer, Massachusetts, USA). […] A ratiometric method, which calculates the ratio (the Emission Ratio) of donor emission to acceptor emission after excitation of the donor fluorophore at 400 nm, quantitates reaction progress, as shown in the equation below. […]

T1 sequence (P49841 whole entry): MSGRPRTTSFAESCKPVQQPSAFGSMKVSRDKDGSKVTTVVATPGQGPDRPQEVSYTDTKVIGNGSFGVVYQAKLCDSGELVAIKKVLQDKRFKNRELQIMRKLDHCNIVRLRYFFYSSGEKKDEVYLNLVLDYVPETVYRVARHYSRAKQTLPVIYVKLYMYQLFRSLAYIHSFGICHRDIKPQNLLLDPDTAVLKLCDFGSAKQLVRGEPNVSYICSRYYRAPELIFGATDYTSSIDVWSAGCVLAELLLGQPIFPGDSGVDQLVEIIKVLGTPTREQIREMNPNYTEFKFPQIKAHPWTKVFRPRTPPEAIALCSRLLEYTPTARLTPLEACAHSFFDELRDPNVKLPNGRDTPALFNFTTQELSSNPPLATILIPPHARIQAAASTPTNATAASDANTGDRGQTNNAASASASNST

As a reminder, the IC50 is the concentration that inhibits the measured activity by half. Take `COCCCNCCCc1ccc(-c2cnc(N)c(C(=O)Nc3cccnc3)n2)cc1` [Example 1, 3-Amino-6-(4-{3-[(3-methoxypropyl)amino]propyl}phenyl)-N-pyridin-3-ylpyrazine-2-carboxamide tri-hydrochloride]: the IC50 was ~35 nM.
